According to patent US20200010910A1, “Cytotoxic Chemotherapy-Based Predictive Assays for Acute Myeloid Leukemia” (The Regents of The University of California, priority 2017, published 2020):
“And” between values parts separate entries of the source, which are not always exact repeats. Identical values can stand only once.

Assays:
[1] = tested on: 5637R; experiment: MTT assay IC50, oxaliplatin-resistant bladder cancer sub-line; type: cell-based, human; conditions: 5637R, 72 hours
Method: Drug-DNA adduct formation and repair was measured by accelerator mass spectrometry.
To confirm that 5637 was the original ATCC cell line, and that 5637R originated from the parental 5637 cell line, both cultures were sent to the ATCC Cell Line Authentication Service for cell verification per the ATCC protocol. More specifically, fifteen short tandem repeat (STR) loci plus the gender determining locus, amelogenin, were amplified using the commercially available PowerPlex® 16HS Kit from Promega.
These two cell lines were also cultured with a range of concentrations of cisplatin, carboplatin, gemcitabine, doxorubicin, methotrexate and vinblastine for 72 hours to determine IC50 for these other drugs (FIG. 16C). These drugs were chosen because of their frequent use in the treatment of bladder cancer.

[2] = human plasma pharmacokinetics of [14C]carboplatin; type: in vivo
Method: Two of the bladder cancer patients received two doses of [^14C]carboplatin, including the initial diagnostic microdose and a second microdose at the time of full therapeutic dose. This allowed us to compare the pharmacokinetics of carboplatin in plasma after both microdosing and therapeutic dosing (FIG. 11A). […] Therefore, microdosing and therapeutic dosing yield similar carboplatin pharmacokinetics in human patients.
The pharmacokinetics of carboplatin administered as a microdose was assessed in four patients (two with bladder cancer and two with NSLC) for the purpose of comparing interpatient variability and establishing the optimum time point for tumor biopsy sample acquisition.

[3] = tested on: Tumor Tissue; experiment: microdose-induced carboplatin-DNA monoadducts in patients; type: in vivo, human
Method: Based upon the previous mouse studies that identified a minimal microdose for accurate AMS analysis of carboplatin monoadducts (1% of therapeutic carboplatin containing 50,000 DPM/gm of mouse body weight), the first in-human evaluation of microdose [^14C]carboplatin was conducted at this same equivalent formulation. The mouse radioactive dose (50,000 DPM/gm), adjusted for body surface area differences between mouse and humans, is equivalent to a dose of 1.0×10^7 DPM/kg of human body weight. The carboplatin dose for human chemotherapy is personalized to a patient's size and kidney function and is calculated using the Calvert formula with an AUC of 6 (Calvert, A. H., et al. “Carboplatin dosage: prospective evaluation of a simple formula based on renal function.” Journal of Clinical Oncology 7.11 (1989): 1748-1756). […] After blood collection, the BD Vacutainer CPT™ tubes were gently inverted several times to ensure mixing with heparin anticoagulant. The tubes were immediately placed on ice or stored at 4° C. and_then processed within 2 hours of collection to separate plasma and PBMC. For processing, the blood filled BD Vacutainer CPT™ tubes were centrifuged at room temperature in a horizontal rotor for 25 minutes at 1600×g. The top plasma layer was transferred to separate tubes and stored at or below −70° C. After most of the plasma was removed from the CPT tube, PBMC were transferred to another tube and washed three times with ice-cold phosphate-buffered solution (PBS). After pelleting the cells and removing the supernatant, the PBMC's were stored frozen at −80° C. until being processed to isolate DNA for determination of the carboplatin-DNA monoadduct frequency. […]
As we have shown in cell culture and mouse tumor xenograph experiments, the carboplatin-DNA monoadduct frequency is proportional to the dose and time integrated exposure to carboplatin. […] DNA from PBMC and tumor tissue was extracted and analyzed by AMS for carboplatin-DNA monoadduct frequency. […]

[4] = tested on: H23, H460, and H727; experiment: carboplatin-DNA monoadducts by AMS, average of sensitive NSCLC lines; type: cell-based, human; conditions: three most sensitive cell lines
Method: NSCLC cell lines were cultured to >90% confluence, dosed with [^14C]carboplatin, and subjected to DNA isolation and AMS analysis. 60 mm dishes were seeded at a density of 1×10^6 cells/dish and allowed to attach overnight in a 37° C. humidified atmosphere containing 5% CO2. At hour 0, cells were dosed with 1 μM (relevant microdose concentration) or 100 μM carboplatin (therapeutically relevant concentration), each comprising 0.3 μM [^14C]carboplatin (50,000 dpm/ml). Cells were incubated with [^14C]carboplatin for 4 h before washing and cultured with carboplatin-free medium to mimic the in vivo carboplatin half-life (1.3-6 hours) in patients. DNA was harvested from the cell lines at hours 0, 2, 4, 8 and 24 hours after initial dosing. Ten micrograms of DNA per sample was converted to graphite and measured by AMS for ^14C/total C quantification. Triplicate sets of AMS experiments were performed for each cell line and time point. The 14C/total C ratio was converted to 14C atoms per DNA base-pair according to the algorithm described herein to provide values of carboplatin-DNA monoadducts per 10^8 nucleotides. The data was plotted as carboplatin-DNA monoadducts per 10^8 nucleotide (nt) vs time (FIGS. 8A and 8B). There was a time-dependent increase in the carboplatin-DNA monoadduct concentration during the first 4 hours of incubation with therapeutic or microdosing carboplatin (FIGS. 8A and 8B). […]

[5] = patients; cited from earlier work

N.N.O=C([O-])C1(C(=O)[O-])CCC1.[Pt+2] [carboplatin]
IC50 [1]: 72.2 µM
plasma half-life ([2]; microdose, four patients): a few hours
time to essential clearance from the blood ([2]; microdose, four patients): ≤ 24 h
difference in plasma elimination kinetics between therapeutic and microdoses ([2]; two bladder cancer patients, 24 h): less than 2 fold
24 h adducts Tumor ([3]; Bladder cancer, individual patients): 20.2 per 10^8 nt and 14.8 per 10^8 nt and 5.37 per 10^8 nt and 3.13 per 10^8 nt and 0.31 per 10^8 nt and 42.5 per 10^8 nt and 8.79 per 10^8 nt and 0.923 per 10^8 nt
24 h adducts Tumor ([3]; Hodgkin patient): 4.58 per 10^8 nt
24 h adducts Tumor ([3]; NSCLC, individual patients): 0.87 per 10^8 nt and 0.66 per 10^8 nt and 1.3 per 10^8 nt
average area under curve (AUC) of carboplatin-DNA monoadducts ([4]; microdosing): 94.61±33.99 hr-monoadducts per 10^8 nt
average area under curve (AUC) of carboplatin-DNA monoadducts ([4]; therapeutic dosing): 9617.8±3172.7 hr-monoadducts per 10^8 nt
in vivo carboplatin half-life in patients [5]: 1.3 to 6 h
